This note sets out measurements from PubChem BioAssay (NCI).

Some test systems named below: DU-145 prostate; HCC-2998 colon; HCT-15 colon; K-562 leukemia; MCF7 breast; NCI-H460 lung; NCI-H522 lung; OVCAR-4 ovarian; PC-3 prostate; SF-295 CNS; SK-MEL-28 melanoma; SNB-19 CNS; SR leukemia; SW-620 colon; UACC-257 melanoma; SF-539 CNS.
What all share (experiment): inhibition of tumour cell growth, NCI panel, 48 h

Structures are written as SMILES.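 Step 1: Grow cells in 96-well plates. Step 2: Expose to compound for 48 hours at 5 concentrations. Step 3: Interpolate endpoints linearly; if unreached, use highest concentration. TGI marks complete inhibition of growth.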

Regarding `CC(=O)NC1C(OCc2ccccc2)OC(CO)C(O)C1OCC(=O)NC(C)C(=O)NC(CCC(=O)OCCNC(=O)c1cccc2cc3ccccc3nc12)C(N)=O` (stereo not given), the TGI is 26.6 µM with DU-145 prostate; 40.4 µM in the experiment with HCC-2998 colon; 33.6 µM with HCT-15 colon; over 100 µM in the experiment on K-562 leukemia; over 100 µM in the experiment with MCF7 breast; 57.8 µM in the experiment with NCI-H460 lung. For the same molecule, the TGI is 34 µM in the experiment with NCI-H522 lung; 48.7 µM in the experiment with OVCAR-4 ovarian; over 100 µM in the experiment with PC-3 prostate; 68.2 µM in the experiment on SF-295 CNS; 43.3 µM with SK-MEL-28 melanoma; 78.8 µM in the experiment on SNB-19 CNS. Also, the TGI with SR leukemia was 45.3 µM; in the experiment with SW-620 colon it was over 100 µM; in the experiment on UACC-257 melanoma, 66.3 µM.
In the case of `COc1ccccc1OCc1nnc(SCC(=O)O)n1-c1ccccc1`, the TGI in the experiment with HCC-2998 colon, in the experiment on HCT-15 colon, with NCI-H460 lung, in the experiment on NCI-H522 lung, in the experiment with OVCAR-4 ovarian and with SF-295 CNS was over 100 µM each time. Besides, the TGI with SF-539 CNS, in the experiment with SK-MEL-28 melanoma, with SR leukemia and in the experiment with UACC-257 melanoma was over 100 µM each time.
Regarding `Clc1ccc(OCc2nnc(CCCCCCCCc3nnc(COc4ccc(Cl)cc4)o3)o2)cc1`, the TGI in the experiment on DU-145 prostate, in the experiment on HCC-2998 colon, in the experiment on HCT-15 colon, in the experiment on K-562 leukemia, with MCF7 breast and in the experiment with NCI-H460 lung was over 100 µM in each case. Moreover, the TGI with NCI-H522 lung, with OVCAR-4 ovarian, in the experiment with PC-3 prostate, in the experiment with SF-295 CNS, in the experiment with SK-MEL-28 melanoma and in the experiment on SNB-19 CNS was over 100 µM each time. For the same molecule, the TGI with SW-620 colon and with UACC-257 melanoma was over 100 µM in each case.
`CCOP(=O)(C/C(=N/NC(C)(C)C)C(=O)Nc1nc2ccc(C)cc2s1)OCC`: the TGI in the experiment with HCC-2998 colon, in the experiment with HCT-15 colon, in the experiment with K-562 leukemia, with NCI-H460 lung, in the experiment with NCI-H522 lung and in the experiment with OVCAR-4 ovarian was over 100 µM each time. Further, the TGI in the experiment with SF-295 CNS, in the experiment with SF-539 CNS, with SK-MEL-28 melanoma, in the experiment on SNB-19 CNS, in the experiment on SR leukemia and with SW-620 colon was over 100 µM throughout. Moreover, the TGI with UACC-257 melanoma was over 100 µM.
For `COC(=O)C(=O)C(C(=O)C(=O)Nc1ccc([N+](=O)[O-])cc1C#N)c1nc2ccc([N+](=O)[O-])cc2[nH]c1=O` (stereo not given), the TGI in the experiment on HCT-15 colon, with K-562 leukemia, in the experiment on NCI-H460 lung, in the experiment on NCI-H522 lung, with OVCAR-4 ovarian and with SF-295 CNS was over 100 µM each time. Moreover, the TGI in the experiment with SF-539 CNS, in the experiment on SNB-19 CNS, in the experiment on SR leukemia, in the experiment on SW-620 colon and in the experiment on UACC-257 melanoma was over 100 µM throughout.
Regarding `CCN(CC)CCNC(=O)c1ccccc1Nc1c(Cl)cccc1Cl`, the TGI in the experiment with HCC-2998 colon worked out at 21 µM; in the experiment with HCT-15 colon it was 26 µM; in the experiment on NCI-H460 lung, 16 µM; with OVCAR-4 ovarian, 30.2 µM; in the experiment on SF-539 CNS, 32.7 µM; in the experiment on SK-MEL-28 melanoma it was 33 µM. Moreover, the TGI is 30.9 µM in the experiment with SNB-19 CNS, 34.2 µM in the experiment on SR leukemia, 29.6 µM in the experiment with SW-620 colon and 29 µM in the experiment with UACC-257 melanoma.
Regarding `COc1cc2c(cc1OC)[C@]1(O)C(=O)c3ccc4c(c3O[C@@H]1CO2)C[C@H](C(C)(C)O)O4`, the TGI with HCC-2998 colon, in the experiment on K-562 leukemia, in the experiment on NCI-H460 lung, with NCI-H522 lung, in the experiment with SF-539 CNS and in the experiment with SK-MEL-28 melanoma was over 100 µM in each case. The TGI with SNB-19 CNS, with SW-620 colon and in the experiment with UACC-257 melanoma was over 100 µM each time.
Turning to `CCC(=O)NCC1(c2c[nH]c3ccccc23)SCCS1`, the TGI with HCC-2998 colon, with HCT-15 colon, in the experiment on K-562 leukemia, in the experiment on NCI-H460 lung, in the experiment with NCI-H522 lung and with OVCAR-4 ovarian was over 100 µM throughout. For the same molecule, the TGI in the experiment on SF-295 CNS, in the experiment with SF-539 CNS, with SK-MEL-28 melanoma, with SNB-19 CNS, in the experiment on SR leukemia and in the experiment with SW-620 colon was over 100 µM each time. In the experiment with UACC-257 melanoma, this molecule yielded a TGI of over 100 µM.
For the molecule `COC(=O)[C@@H]1C[C@H]2[C@H](c3ccccc3Br)[C@@H](OC(C)=O)[C@@H](OCc3ccccc3)ON2O1`, the TGI with DU-145 prostate, in the experiment with HCC-2998 colon, in the experiment on HCT-15 colon, with K-562 leukemia, in the experiment on MCF7 breast and in the experiment on NCI-H460 lung was over 100 µM in each case. In addition, the TGI with OVCAR-4 ovarian, with PC-3 prostate, in the experiment on SF-295 CNS, with SF-539 CNS, with SK-MEL-28 melanoma and in the experiment with SNB-19 CNS was over 100 µM throughout. The TGI in the experiment on SR leukemia, with SW-620 colon and with UACC-257 melanoma was over 100 µM each time.
Turning to `O=c1[nH]nc2c3n[nH]c(=O)n3c3ccccc3n12`, the TGI in the experiment with HCC-2998 colon, in the experiment on HCT-15 colon, in the experiment with K-562 leukemia, in the experiment on NCI-H460 lung, in the experiment with NCI-H522 lung and with OVCAR-4 ovarian was over 100 µM throughout. Moreover, the TGI with SF-295 CNS, in the experiment with SF-539 CNS, with SK-MEL-28 melanoma, in the experiment on SNB-19 CNS, with SW-620 colon and in the experiment on UACC-257 melanoma was over 100 µM throughout.
For `N=c1nc(N)nc(N)n1-c1ccc(S(N)(=O)=O)cc1`, the TGI with DU-145 prostate, in the experiment with HCT-15 colon, in the experiment with K-562 leukemia, in the experiment with NCI-H460 lung, in the experiment on NCI-H522 lung and in the experiment with OVCAR-4 ovarian was over 100 µM in each case. Besides, the TGI with PC-3 prostate, in the experiment with SF-295 CNS, in the experiment on SK-MEL-28 melanoma, in the experiment on SNB-19 CNS, in the experiment with SR leukemia and in the experiment on SW-620 colon was over 100 µM each time. The molecule further gave a TGI in the experiment on UACC-257 melanoma of over 100 µM.
